Source: patent US8748566B2, “Pharmacologically active antiviral peptides and methods of use” (priority 2000, dated 2014)

Legend:
[1] = test system: HSV-1 KOS virions; assay: Electron microscopy of peptide-treated virions (aggregation); conditions: 25 μM peptide, purified virus particles
Description: Purified HSV-1 KOS virions (2.5×10^7 pfu/ml) according to Visalli et al., Virus Res. 29:167 (1993) were treated with 25 μM antiviral peptide SEQ ID NO:1 or the control peptide EBX (SEQ ID NO: 17) in 40 μl serum-free DMEM buffered with 25 mM Hepes (pH 7.4) for 5 to 60 min at 4 or 23° C. Aliquots (10 μl) were adsorbed to pioloform poly-L-lysine-coated grids for 5 min at 23° C. Grids were rinsed with PBS, stained with 2% phosphotungstic acid (PTA) in water adjusted to pH ˜6 and air dried. Alternatively, virus was pre-adsorbed to grids and treated with peptides thereafter. A total of 4×10^9 pfu/ml of purified HSV-1 KOS in 5 μl PBS was applied to the coated grids for 5 min at 23° C., and the grids were rinsed once with serum-free DMEM buffered with 25 mM Hepes (pH 7.4) and treated with 15 μl of 5 mM EB or EBX in the same medium for 30 min at 37° C. The pH of highly concentrated solutions of antiviral peptide SEQ ID NO:1 and EBX was re-adjusted to 7.4 with NaOH prior to use. To prevent evaporation of the peptide-containing solutions, each grid was held in a Hiraoka flexible staining plate and covered with miniature bell jar made from an 0.5 ml polypropylene micro-centrifuge tubes, small enough for the 15 μl to fill half of the bell jar facing the coated surface of the grid. The entire assembly was then incubated in a moist chamber for 30 min at 37° C. […]

[2] = test system: HSV-1 KOS; assay: Plaque reduction assay, HSV-1 KOS infection of Vero cell cultures; assay type: cell-based
Description: The procedures for growing Vero cells and preparing high titer stocks of HSV-1 KOS as described in (Grau et al., Invest. Ophthal. and Vis. Sci. 30: 2474 (1989)) were utilized. Vero cells were maintained in carbonate-buffered DMEM supplemented with 5% calf serum and 5% fetal bovine serum (regular medium). For some studies, cells were switched to serum-free DMEM buffered with 25 mM Hepes (pH 7.4) and allowed to adapt to that medium for 30 min prior to experimental treatments. Vero cells were seeded into wells (0.28 cm^2) of microtiter plates either at 3.5×10^4 cells/well for use 1 day later (8×10^4 cells/well) or at 1×10^4 cells/well for use 3 days later (2×10^5 cells/well).
Confluent Vero cell cultures in microtiter plates were infected for 1 hour at 37° C. in 40 μl of medium. Except where indicated, peptide treatments in 40 μl of medium lasted from 1 hour before through 1 hour after infection. At the end of the adsorption period, the cultures were re-fed with 100 μl of regular medium. Plaque formation was scored 2 days later and the number of plaques scored per well was normalized to the number counted in the absence of peptide. Using an ocular micrometer, plaque size ([…]) was determined by measuring the largest plaque diameter (L) and the diameter at a 90° angle to that (S). The size of each of the first 40 scored plaques was measured except when a plaque included less than 10 rounded cells or touched the side of the well.

H-RRKKAAVALLPAVLLALLAP-OH [EB]
state of virus particles by electron microscopy [1]: nearly all of the particles were seen in relatively few large aggregates | effect on plaque size ([2]; EB present before and during adsorption): no effect on plaque size | fold lower concentration blocking infections compared to control peptide EBX ([2]; absence of serum (FIG. 1B)): 100 fold | effect on plaque formation ([2]; peptide present during infection of Vero cells with HSV-1 KOS): blocking plaque formation | fold lower concentration blocking infections compared to control peptide EBX ([2]; presence of serum (FIG. 1A)): 10 fold | combined mean plaque size ([2]; transient treatments with 6 and 12 μM EB (up to 1 hour post-infection)): 68,000±11,000 μm^2
